This note sets out measurements from patent US6809106B1, “Quinoline derivatives as inhibitors of MEK enzymes” (AstraZeneca AB, priority 1999, dated 2004).

The test system of test [1] is HT29 human colon tumour cells. The test is described as follows: Cell proliferation assays. The note with it: 72 hours incubation. Format: cell-based. How it is done:
Cell Proliferation Assays
Cells were seeded into multi-well plates at 20 000-40 000 cells/ml in growth medium containing 5% FCS and incubated overnight at 37° C. The compounds were prepared in fresh medium at an appropriate concentration and added to the wells containing the cells. These were then incubated for a further 72 hours. Cells were then either removed from the wells by incubating with trypsin/EDTA and counted using a Coulter counter, or treated with KIT/PMS in PBSA and optical densities read at […].

For a further test, the target named is human p45MEK1 (GST-MEK) (Homo sapiens, UniProt Q02750). The test is described as follows: Assay for inhibitors of the MAP kinase pathway (coupled GST-MEK/GST-MAPK/MBP 33P assay). The class given is biochemical. The note with it: GST-MEK activated by c-raf, MBP substrate, 8.33 μM ATP. How it is done: Assay for Inhibitors of the MAP Kinase Pathway
Sequence of human p45MEK1 (GST-MEK) (Q02750 whole entry, the tested form may be a part): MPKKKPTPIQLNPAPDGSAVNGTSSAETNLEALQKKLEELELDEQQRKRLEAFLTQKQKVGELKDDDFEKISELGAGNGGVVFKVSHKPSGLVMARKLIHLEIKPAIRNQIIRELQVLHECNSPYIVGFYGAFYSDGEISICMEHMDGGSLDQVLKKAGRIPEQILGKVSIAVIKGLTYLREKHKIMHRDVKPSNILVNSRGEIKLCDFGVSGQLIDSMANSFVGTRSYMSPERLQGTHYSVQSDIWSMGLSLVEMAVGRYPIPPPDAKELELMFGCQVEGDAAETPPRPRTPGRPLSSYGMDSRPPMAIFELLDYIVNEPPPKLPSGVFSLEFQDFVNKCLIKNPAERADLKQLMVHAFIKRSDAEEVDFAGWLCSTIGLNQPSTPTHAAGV
To evaluate inhibitors of the MAPK pathway a coupled assay was carried out which measures phosphorylation of serine/threonine residues present in the substrate in the presence or absence of inhibitor. Recombinant glutathione S-transferase fusion protein containing human p45MEK1 (GST-MEK) was activated by c-raf (Sf9 insect cell lysate from triple baculoviral infection with c-raf/ras/lck) and used for the assay. Active GST-MEK was first used to activate a recombinant glutathione S-transferase fusion protein containing p44MAP kinase (GST-MAPK) in the presence of ATP and Mg^2+ for 60min at room temperature in the presence or absence of potential inhibitors. The activated GST-MAPK was then incubated with myelin basic protein (MBP) as substrate for 10 min at room temperature in the presence of ATP, Mg^2+ and ^33P-ATP. The reaction was stopped by addition of 20% v/v phosphoric acid. Incorporation of ^33P into the myelin basic protein was determined by capture of the substrate on a filter mat, washing and counting using scintillation methods. The extent of inhibition was determined by comparison with untreated controls.
The final assay solution contained 10 mM Tris, pH 7.5, 0.05 mM EGTA, 8.33 μM [γ^33P]ATP, 8.33 mM Mg(OAc)2, 0.5 mM sodium orthovanadate, 0.05% w/v BSA, 6.5 ng GST-MEK, 1 μg GST-MAPK and 16.5 μg MBP in a reaction volume of […].

Consider `COc1cc2ncc(Cl)c(Nc3ccc(Oc4ccccc4OC)cc3)c2cc1OC` [Compound 1, 4-(2-methoxyphenoxy)-anilino-3-chloro-6,7-dimethoxyquinoline], for which the concentration for half-maximal inhibition (IC50) in test [1] was determined as 3400 nM. In turn, `COc1cc2ncc(Cl)c(Nc3ccc(Cl)c(Cl)c3)c2cc1OC` [Compound 5] registered a concentration for half-maximal inhibition (IC50) against human p45MEK1 (GST-MEK) of 1530 nM.

What is called IC50 is the midpoint of a concentration-inhibition curve. Low values mean inhibition by little substance, high ones a need for much substance.
